Measurements as given in ChEMBL document CHEMBL4321874 (J Med Chem, 2020).

What was measured:
[1] = target: T1, CDC7/DBF4 (Cell division cycle 7-related protein kinase/Activator of S phase kinase) (Homo sapiens, UniProt O00311); assay: Inhibition of N-terminal GST-fused full-length human CDC7 (1 to 574 end residues)/DBF4 (1 to 674 residues) expressed in baculovirus expression system using MCM2 as substrate preincubated with enzyme for 10 mins prior to 1 uM ATP addition by HTRF transcreener ADP assay
[2] = target: Cyclin-dependent kinase 2/cyclin E1 (Homo sapiens, UniProt P24941); assay: Inhibition of N-terminal GST-tagged full-length human CDK2 (1 to 298 residues)/Cyclin E (1 to 410 residues) expressed in baculovirus expression system using histone H1 as susbtrate after 90 mins by Kinase-Glo luminescence assay
[3] = target: Rho-associated protein kinase 1 (Homo sapiens, UniProt Q13464); assay: Inhibition of N-terminal GST-tagged human ROCK1 catalytic domain (1 to 477 residues) expressed in baculovirus expression system using biotin-STK-substrate 2 as substrate preincubated with enzyme for 5 mins followed by ATP addition and measured after 2 hrs by TR-FRET assay
Homo sapiens [4] = species on record: Homo sapiens; assay: Selectivity index, ratio of IC50 for N-terminal GST-tagged full-length human CDK2 (1 to 298 residues)/Cyclin E (1 to 410 residues) expressed in baculovirus expression system to IC50 for N-terminal GST-fused full-length human CDC7 (1 to 574 end residues)/DBF4 (1 to 674 residues) expressed in baculovirus expression system
Homo sapiens [5] = species on record: Homo sapiens; assay: Selectivity index, ratio of IC50 N-terminal GST-tagged human ROCK1 catalytic domain (1 to 477 residues) expressed in baculovirus expression system to IC50 for N-terminal GST-fused full-length human CDC7 (1 to 574 end residues)/DBF4 (1 to 674 residues) expressed in baculovirus expression system
[6] = target: T1, CDC7/DBF4 (Cell division cycle 7-related protein kinase/Activator of S phase kinase); assay: Inhibition of N-terminal GST-fused full-length human CDC7 (1 to 574 end residues)/DBF4 (1 to 674 residues) expressed in baculovirus expression system using MCM2 as substrate in presence of 50 uM ATP by HTRF transcreener ADP assay
[7] = target: T1, CDC7/DBF4 (Cell division cycle 7-related protein kinase/Activator of S phase kinase); assay: Inhibition of N-terminal GST-fused full-length human CDC7 (1 to 574 end residues)/DBF4 (1 to 674 residues) expressed in baculovirus expression system using MCM2 as substrate preincubated with enzyme for 60 mins prior to 50 uM ATP addition by HTRF transcreener ADP assay
[8] = target: Cell division cycle 7-related protein kinase (Homo sapiens, UniProt O00311); assay: Inhibition of CDC7 in human HeLa cells assessed as inhibition of MCM2 phosphorylation at Ser40 residue in human HeLa cells after 7 hrs by Western blot analysis; assay type: cell-based
COLO 205 = assay: Antiproliferative activity against human COLO205 cells assessed as reduction in cell growth after 3 days by CellTiter-Glo luminescence assay; assay type: functional, cell-based; details: COLO 205, 72 h
[9] = Drug metabolism in aqueous media assessed as formaldehyde adduct formation at 5 nmol after 30 mins in presence of excess formaldehyde by QTOF-UPLC analysis
[10] = Drug metabolism in reaction buffer containing 50 mM HEPES, 0.1 mM orthovanadate, 0.01% BSA, 10 mM MgCl2, and 1 mM DTT at pH 7.5
[11] = Drug metabolism in reaction buffer containing 25 mM HEPES, 0.1% Tween 20, 0.01% BSA, 10 mM Mg(OAc)2, and 1 mM DTT at pH 7.5
[12] = Drug metabolism in reaction buffer containing 20 mM HEPES, 10 mM Mg(OAc)2, and 1 mM DTT at pH 7.5

SMILES | IC50 [1] [nM] | IC50 [2] [nM] | IC50 [3] [nM] | Ratio IC50 (Homo sapiens [4]) | Ratio IC50 (Homo sapiens [5]) | IC50 [6] [nM] | IC50 [7] [nM] | IC50 [8] [nM] | EC50 (COLO 205) [nM] | Drug metabolism [9] | Drug metabolism [10] | Drug metabolism [11] | Drug metabolism [12]
Cc1n[nH]cc1-c1cc2nc([C@@H]3CCCN3C)[nH]c(=O)c2s1 | 1.9 | > 10000 | 160 | > 5300 | 84 | – | – | – | – | – | – | – | –
Cc1n[nH]cc1-c1cc2nc(C34CC(CN3)C4)[nH]c(=O)c2s1 | 0.16 | 2700 | 220 | – | – | 77 | 2.1 | 130 | 750 | – | – | – | –
Cc1n[nH]cc1-c1cc2nc([C@@H]3CCC(C)(C)N3)[nH]c(=O)c2s1 | 1.9 | > 10000 | 1500 | > 5300 | 790 | – | – | – | – | – | – | – | –
Cc1n[nH]cc1-c1cc2nc([C@]3(C)CCCN3)[nH]c(=O)c2s1 | 9.8 | 9900 | 270 | 1000 | 28 | – | – | – | – | – | – | – | –
Cc1n[nH]cc1-c1cc2nc([C@H]3NCC[C@@H]3C)[nH]c(=O)c2s1 | 0.61 | 620 | 130 | 1000 | 210 | – | – | – | – | – | – | – | –
Cc1n[nH]cc1-c1cc2nc([C@H]3CC4CCN3CC4)[nH]c(=O)c2s1 | 1 | > 10000 | 460 | – | – | – | – | – | – | – | – | – | –
Cc1n[nH]cc1-c1cc2nc([C@@H]3CC=CCN3)[nH]c(=O)c2s1 | 0.53 | 4700 | 340 | 8900 | 640 | – | – | – | – | – | – | – | –
Cc1n[nH]cc1-c1cc2nc([C@@H]3CC4CCN3CC4)[nH]c(=O)c2s1 [SIMUROSERTIB] | – | – | – | – | – | – | – | – | 81 | Metabolite not detected | Metabolite not detected | Metabolite not detected | Metabolite not detected
Cc1n[nH]cc1-c1cc2nc(C34CCC(CC3)N4)[nH]c(=O)c2s1 | 0.16 | 1500 | 96 | 9400 | 600 | – | – | – | – | Metabolite not detected | Metabolite not detected | Metabolite not detected | Metabolite not detected

Second part, led by results:

IC50 [1] [nM] | IC50 [2] [nM] | IC50 [3] [nM] | Ratio IC50 (Homo sapiens [4]) | Ratio IC50 (Homo sapiens [5]) | SMILES | IC50 [6] [nM] | IC50 [7] [nM] | IC50 [8] [nM] | EC50 (COLO 205) [nM] | Drug metabolism [9] | Drug metabolism [10] | Drug metabolism [11] | Drug metabolism [12]
2.1 | 6900 | 760 | 3300 | 360 | Cc1n[nH]cc1-c1cc2nc([C@@H]3CCN3)[nH]c(=O)c2s1 | – | – | – | – | – | – | – | –
0.43 | 9500 | 530 | – | – | O=c1[nH]c([C@@H]2CCCCN2)nc2cc(-c3c[nH]nc3C(F)(F)F)sc12 | 72 | 0.72 | 41 | 230 | – | – | – | –
0.91 | 4800 | 370 | – | – | Cc1n[nH]cc1-c1cc2nc([C@H]3CCCCN3)[nH]c(=O)c2s1 | – | – | – | – | – | – | – | –
0.71 | 3900 | 360 | 5500 | 510 | Cc1n[nH]cc1-c1cc2nc([C@@H]3CCCN3)[nH]c(=O)c2s1 | – | – | – | – | – | – | – | –
1.3 | 3700 | 630 | 2800 | 480 | Cc1n[nH]cc1-c1cc2nc([C@@H]3C[C@H](C)CN3)[nH]c(=O)c2s1 | – | – | – | – | – | – | – | –
1.2 | 2800 | 450 | 2300 | 380 | Cc1n[nH]cc1-c1cc2nc([C@@H]3CCCCCN3)[nH]c(=O)c2s1 | – | – | – | – | – | – | – | –
